The values below come from PMC5814047, “Peptidic inhibitors of insulin-degrading enzyme with potential for dermatological applications discovered via phage display” (PLoS ONE, 2018).

One assay deals with T1, IDE (Homo sapiens, UniProt P14735).
T1 construct: made in house; host or cells: bacteria
T1 sequence (P14735 1-1019): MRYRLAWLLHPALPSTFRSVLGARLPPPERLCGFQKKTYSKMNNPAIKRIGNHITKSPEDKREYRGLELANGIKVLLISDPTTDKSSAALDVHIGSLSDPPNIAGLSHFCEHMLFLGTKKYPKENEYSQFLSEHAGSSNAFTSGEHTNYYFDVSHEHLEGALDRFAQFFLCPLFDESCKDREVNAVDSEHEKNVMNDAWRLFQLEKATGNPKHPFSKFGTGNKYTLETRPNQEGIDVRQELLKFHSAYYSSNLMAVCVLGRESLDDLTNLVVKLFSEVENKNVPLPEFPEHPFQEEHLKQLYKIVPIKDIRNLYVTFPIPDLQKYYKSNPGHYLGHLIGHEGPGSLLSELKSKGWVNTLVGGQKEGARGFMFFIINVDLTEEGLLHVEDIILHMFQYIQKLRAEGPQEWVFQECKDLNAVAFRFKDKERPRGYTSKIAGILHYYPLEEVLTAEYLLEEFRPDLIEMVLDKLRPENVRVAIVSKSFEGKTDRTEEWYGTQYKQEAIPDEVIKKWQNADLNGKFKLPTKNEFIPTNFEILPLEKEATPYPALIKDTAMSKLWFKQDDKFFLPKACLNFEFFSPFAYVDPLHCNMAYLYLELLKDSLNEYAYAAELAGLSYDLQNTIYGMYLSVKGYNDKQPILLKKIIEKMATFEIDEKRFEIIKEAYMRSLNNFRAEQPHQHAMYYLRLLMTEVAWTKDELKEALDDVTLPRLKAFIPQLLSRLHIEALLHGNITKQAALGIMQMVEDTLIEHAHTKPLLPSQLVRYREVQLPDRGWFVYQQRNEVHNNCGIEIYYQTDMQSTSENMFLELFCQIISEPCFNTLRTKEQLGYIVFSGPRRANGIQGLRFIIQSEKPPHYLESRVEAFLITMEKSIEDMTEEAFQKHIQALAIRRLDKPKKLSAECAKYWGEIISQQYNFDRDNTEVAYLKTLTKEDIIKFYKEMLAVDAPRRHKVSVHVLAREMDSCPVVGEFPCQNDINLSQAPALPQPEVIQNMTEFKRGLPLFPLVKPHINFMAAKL
Further details: method as in PMID 24847884. The following applies: read-out: IC50 against insulin; cited from earlier work.

The next assay has as its target T2, MMP-7 (Homo sapiens, UniProt P09237).
T2 construct: purchased Enzo Life Sciences, Inc
T2 sequence (P09237 95-267): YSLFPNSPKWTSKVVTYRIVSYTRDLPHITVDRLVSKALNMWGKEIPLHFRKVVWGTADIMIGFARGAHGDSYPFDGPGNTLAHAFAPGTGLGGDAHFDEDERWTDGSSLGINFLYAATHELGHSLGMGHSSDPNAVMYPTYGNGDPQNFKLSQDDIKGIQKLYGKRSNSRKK
Kind of assay: MMP Inhibitor Profiling Kit, MMP-7. In kind it is biochemical. The following applies: MMP-7. The procedure:
IDE activity was quantified by monitoring the degradation of Mca-[…](Dnp) (FRET1, 5 μM), fluoresceinated and biotinylated amyloid ß-protein (FAßB; 500 nM) or recombinant human insulin (50 nM) in PBS supplemented with 0.05% BSA. FRET1 degradation was measured by changes in fluorescence (λex = 340 nm, λem = 420 nm); FAßB degradation was monitored by fluorescence polarization (λex = 488 nm, λem = 525 nm), as described; and insulin degradation was quantified by ELISA. In vitro activity assays incorporated recombinant human IDE (1 nM) purified from bacteria. For quantitation of insulin degradation in primary murine skin fibroblasts, cells (1 x 10^5/well) were plated in 96-well plates and maintained in DMEM supplemented with 10% fetal bovine serum (FBS), 2mM glutamine, penicillin and streptomycin. After addition of insulin (10 nM or 100 nM), samples of conditioned medium were removed daily and quickly frozen, then insulin levels were quantified in parallel by ELISA according to manufacturer’s recommendations (Crystal Chem, Downers Grove, IL, USA). Assessment of the activity of P12-3A against a variety of matrix-metalloproteases was conducted using the Matrix Metalloproteinase (MMP) Inhibitor Profiling Kit, Fluorometric RED (Enzo Life Sciences, Inc., Farmingdale, NY, USA) according to manufacturer’s recommendations using the broad-spectrum MMP inhibitor, NNGH, as a positive control. […]

Assay [1] relates to multiple matrix-metalloproteases (MMPs). Nature of the assay: Matrix Metalloproteinase (MMP) Inhibitor Profiling Kit, Fluorometric RED. Further details: % activity relative to DMSO-only controls, single runs / % activity relative to DMSO-only controls, Mean: concentration or dose not given beside the values. Type of assay: biochemical. The procedure: IDE activity was quantified by monitoring the degradation of Mca-[…](Dnp) (FRET1, 5 μM), fluoresceinated and biotinylated amyloid ß-protein (FAßB; 500 nM) or recombinant human insulin (50 nM) in PBS supplemented with 0.05% BSA. FRET1 degradation was measured by changes in fluorescence (λex = 340 nm, λem = 420 nm); FAßB degradation was monitored by fluorescence polarization (λex = 488 nm, λem = 525 nm), as described; and insulin degradation was quantified by ELISA. In vitro activity assays incorporated recombinant human IDE (1 nM) purified from bacteria. For quantitation of insulin degradation in primary murine skin fibroblasts, cells (1 x 10^5/well) were plated in 96-well plates and maintained in DMEM supplemented with 10% fetal bovine serum (FBS), 2mM glutamine, penicillin and streptomycin. After addition of insulin (10 nM or 100 nM), samples of conditioned medium were removed daily and quickly frozen, then insulin levels were quantified in parallel by ELISA according to manufacturer’s recommendations (Crystal Chem, Downers Grove, IL, USA). Assessment of the activity of P12-3A against a variety of matrix-metalloproteases was conducted using the Matrix Metalloproteinase (MMP) Inhibitor Profiling Kit, Fluorometric RED (Enzo Life Sciences, Inc., Farmingdale, NY, USA) according to manufacturer’s recommendations using the broad-spectrum MMP inhibitor, NNGH, as a positive control.
Supplementary file pone.0193101.s004.tif: S4 Fig Selectivity of P12-3A for IDE vis-à-vis other proteases. Activity of P12-3A (100 μM) against (A) multiple matrix-metalloproteases (MMPs) and (B) multiple peptidases of different protease classes. […] Data are mean ± SD, n = 8–16 per group. P<0.05 by 2-tailed Student’s t-test. […] See Materials and Methods for details. NEP, neprilysin; mCatD, murine cathepsin D; hCatD, human cathepsin D. (TIF) Click here for additional data file.

What is called IC50 is the concentration needed to halve the response being measured.

As for `NCCCC[C@@H]1NC(=O)/C=C/C(=O)N[C@H](C(N)=O)CCCCNC(=O)[C@@H](Cc2ccc(C(=O)c3ccccc3)cc2)NC(=O)[C@H](CC2CCCCC2)NC1=O` [6bK], on IDE, the IC50 was roughly 100 nM.

In the case of `COc1ccc(S(=O)(=O)N(CC(=O)NO)CC(C)C)cc1` [NNGH, reference compound], the “% activity relative to DMSO-only controls, Mean” value on MMP-7 is recorded as 49.4%; in assay [1] (MMP-1), 1.0%; in assay [1] (MMP-2), 0.122%; in assay [1] (MMP-3), -1.2%; in assay [1] (MMP-8) it was 5.1%; in assay [1] (MMP-9), 4.0%. Besides, the “% activity relative to DMSO-only controls, Mean” value in assay [1] (MMP-12) is 1.9%; in assay [1] (MMP-13), 6.5%; in assay [1] (MMP-14), 24%; in assay [1] (MMP-19) it was 38%. Further, the “inhibition by positive control, MMPs” value in assay [1] (NNGH positive control, P< 0.01) is recorded as “significant inhibition”.
